The source made the active and inactive calls. No rule for the calls is given here.
Target: Peptidyl-prolyl cis-trans isomerase FKBP1A (Homo sapiens) (UniProt P62942)
Assay: small-molecule binding to FKBP12 – biophysical, NMR detection (AID 608)
Settings: purified FKBP12

Chain of Peptidyl-prolyl cis-trans isomerase FKBP1A (Homo sapiens) (P62942 whole entry, looked up): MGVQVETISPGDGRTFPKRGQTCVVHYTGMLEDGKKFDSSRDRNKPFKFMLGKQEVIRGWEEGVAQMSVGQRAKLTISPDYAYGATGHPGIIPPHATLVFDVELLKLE

Row | Compound | Kd
1 | Cc1cc(=O)n2ncn(Cc3ccccc3)c2n1 | > 4 mM (inactive)
2 | O=c1[nH]cnc2nc[nH]c12 | > 4 mM (inactive)
3 | CCOC(=O)c1c(C)nc2ncccn12 | > 4 mM (inactive)
4 | COc1ccc(O)c(-c2cn[nH]c2-c2cccs2)c1 | > 4 mM (inactive)
5 | O=C1CN(C(=O)c2ccccc2F)c2ccccc2N1 | > 4 mM (inactive)
6 | CC(=O)NC(=S)Nc1cccc(C(=O)O)c1C | > 4 mM (inactive)
7 | Cc1ccccc1NC(=O)CC1SC(N)=NC1=O (stereo not drawn) | > 4 mM (inactive)
8 | NC(=O)C(=O)NCc1ccc(Cl)cc1 | > 4 mM (inactive)
9 | OCn1nnn(-c2ccccc2)c1=S | > 4 mM (inactive)
10 | CCNS(=O)(=O)c1cc(Br)ccc1OC | > 4 mM (inactive)
11 | O=C1CNC(=O)N1Cc1ccc(F)cc1 | > 4 mM (inactive)
12 | Nc1ncnc2nc[nH]c12 | > 4 mM (inactive)
13 | Cc1[nH]c2ccccc2c1C=Nn1cncn1 | > 4 mM (inactive)
14 | CCOC(=O)Cc1nc2ccccc2[nH]1 | > 4 mM (inactive)
15 | COc1ccc(Cl)cc1-c1n[nH]c(=S)n1C | > 4 mM (inactive)
16 | O=C(Nc1ccccc1F)c1ccncc1 | > 4 mM (inactive)
17 | c1ccc2c(c1)nc(-c1cscn1)n2CCCCc1nn[nH]n1 | inactive
18 | C[C@@H]1C(=O)O[C@H]2[C@H]1CC[C@@]1(C)C=CC(=O)[C@@]3(C)O[C@@]213 | > 4 mM (inactive)
19 | Nc1nc(-c2ccccc2)cc(=O)[nH]1 | > 4 mM (inactive)
20 | Cc1ccc(C)c(S(=O)(=O)NCc2cccnc2)c1 | > 4 mM (inactive)
21 | CCN(CC)S(=O)(=O)c1ccc(F)cc1 | > 4 mM (inactive)
22 | C=C[C@@](C)(O)CCC1C(=C)CCC2[C@@](C)(CO)CCC[C@]12C (stereo partly drawn) | > 4 mM (inactive)
23 | Cc1onc(-c2ccc(F)cc2)c1C(=O)O | > 4 mM (inactive)
24 | CCN1CCc2c(sc(N)c2C#N)C1 | > 4 mM (inactive)
25 | CC(C)NS(=O)(=O)c1ccc(N)cc1 | > 4 mM (inactive)

Row | Compound | Kd
26 | Nc1ccc(Cc2ccc(N)cc2)cc1 | > 4 mM (inactive)
27 | Clc1ccc(-n2ccnc2)nn1 | > 4 mM (inactive)
28 | COC(=O)C[C@H]1C(C)(C)C(=O)[C@@H]2CC3=C(CC[C@]4(C)C3=CC(=O)O[C@H]4c3ccoc3)C1(C)C2=O | > 4 mM (inactive)
29 | COc1cc(OC)c2c(=O)c(-c3ccc4c(c3)OCO4)coc2c1 | > 4 mM (inactive)
30 | COC(=O)Cc1cccc(OC)c1 | > 4 mM (inactive)
31 | O=C(c1ccc(Cl)c(F)c1F)N1CCCC1 | > 4 mM (inactive)
32 | OCCCc1nc2ccccc2[nH]1 | > 4 mM (inactive)
33 | CCC1(CC)C(=O)N=C(N)NC1=O | > 4 mM (inactive)
34 | O=C(CSc1ncn[nH]1)c1ccc2c(c1)OCO2 | > 4 mM (inactive)
35 | Cc1nc2ccccc2n1S(=O)(=O)N1CCOCC1 | inactive
36 | Nc1ncnc(NCc2cccnc2)c1[N+](=O)[O-] | > 4 mM (inactive)
37 | Nc1nc(O)c(C2=c3cc(Cl)ccc3=NC2=O)s1 | > 4 mM (inactive)
38 | CN1CCN(CC(=O)Nc2ccccc2)CC1 | > 4 mM (inactive)
39 | Cn1nnc2c(Cl)ncnc21 | > 4 mM (inactive)
40 | O=C1c2ccc(F)cc2C(=O)N1CO | > 4 mM (inactive)
41 | O=C(CSc1cccc2cccnc12)N1CCOCC1 | inactive
42 | COc1ccc2c(c1)OCC(Cc1ccc(OC)c(OC(C)=O)c1)C2=O (stereo not drawn) | > 4 mM (inactive)
43 | Nc1ccccc1-c1nc2ccccc2[nH]1 | 0.286 mM
44 | Cc1ncoc1C(=O)Nc1ccccc1C(N)=O | > 4 mM (inactive)
45 | NC(=O)N1CCc2ccccc21 | > 4 mM (inactive)
46 | O=C(COc1ccc2c(c1)OCO2)N1CCOCC1 | inactive
47 | COC(=O)NCc1cc2cc(Cl)ccc2[nH]1 | > 4 mM (inactive)
48 | O=c1c(-c2cc(O)c(O)c(O)c2)coc2cc(O)c(O)c(O)c12 | > 4 mM (inactive)
49 | C=CCSCC=C | > 4 mM (inactive)
50 | CSc1ccccc1NC(=O)c1ccoc1C | > 4 mM (inactive)

Row | Compound | Kd
51 | Cc1cc(C)n2nc(SCC(=O)c3ccccc3)nc2n1 | > 4 mM (inactive)
52 | COC(=O)c1cc(C)on1 | > 4 mM (inactive)
53 | Cc1n[nH]c(C)c1CN | > 4 mM (inactive)
54 | CCCCN1C(=O)C2CC/C(=N/O)CC2C1=O (stereo not drawn) | > 4 mM (inactive)
55 | COC(=O)C1=CO[C@@H](O[C@@H]2O[C@H](CO)[C@@H](O)[C@H](O)[C@H]2O)[C@@H]2[C@@H](C)[C@@H](O)C[C@H]12 | > 4 mM (inactive)
56 | CCN1CCC(=NO)CC1 | > 4 mM (inactive)
57 | CN(C(N)=O)C1(C)CCS(=O)(=O)C1 (stereo not drawn) | > 4 mM (inactive)
58 | O=C(O)CNC(=O)c1ccccc1Cl | > 4 mM (inactive)
59 | O=C(NC1=NCCS1)c1csc2ccccc12 | > 4 mM (inactive)
60 | CN(C)c1nc(N)nc(-c2nc3ccccc3s2)n1 | > 4 mM (inactive)
61 | CC(=O)Nc1ccc2c(c1)n(C)c(=O)n2C | > 4 mM (inactive)
62 | Cc1ccc(C(C)C)c(OCCNC(=O)c2ccccc2OCC(=O)N2CCOCC2)c1 | inactive
63 | Cc1nc(-c2cccc(C(=O)O)c2)cs1 | > 4 mM (inactive)
64 | NC(=O)C1CCN(Cc2ccccc2)CC1 | > 4 mM (inactive)
65 | COc1cc2c(cc1-c1cc3cc4ccoc4cc3oc1=O)OCO2 | > 4 mM (inactive)
66 | CCOc1ccc(C(=O)c2ccncc2)cc1 | > 4 mM (inactive)
67 | CCC(C)C(=O)O[C@H]1[C@H](O)C2C(CN3CC(C)CCC3[C@@]2(C)O)C2C[C@]34O[C@]5(O)C(OC(=O)C(C)(O)CC)CC[C@@]3(C)C5C(OC(C)=O)[C@@H](OC(C)=O)C4[C@@]21O (stereo partly drawn) | > 4 mM (inactive)
68 | O=C(CSC1=NCCS1)N1CCc2ccccc21 | > 4 mM (inactive)
69 | Clc1ccc(SCCn2cncn2)cc1 | > 4 mM (inactive)
70 | C=CCn1c(=S)[nH]c2ccc(Br)cc2c1=O | > 4 mM (inactive)
71 | CC1CCC(N2CCN(c3ncccn3)CC2)CC1 (stereo not drawn) | > 4 mM (inactive)
72 | COc1ccc2nc(N)sc2c1 | > 4 mM (inactive)
73 | CN(C)S(=O)(=O)c1cccc(N)c1 | > 4 mM (inactive)
74 | CCCn1cnc2sc(C(N)=O)c(C)c2c1=O | > 4 mM (inactive)
75 | CC1(C)CC(=O)c2cnn(-c3nc4ccccc4[nH]3)c2C1 | 0.491 mM

Row | Compound | Kd
76 | C=C(C)[C@H]1Cc2c(ccc3c2O[C@@H]2COc4cc(OC)c(OC)cc4[C@@H]2C3=O)O1 | > 4 mM (inactive)
77 | Cc1ccccc1-n1c(-c2ccncc2)n[nH]c1=S | > 4 mM (inactive)
78 | O=C1CCCc2c(O)cccc21 | > 4 mM (inactive)
79 | Cc1ccc(C(=O)N2CCC(C(N)=O)CC2)cc1C | > 4 mM (inactive)
80 | O=S(=O)(Nc1ccc(F)cc1)N1CCCCC1 | inactive
81 | O=c1[nH]c(CN2CCN(CCO)CC2)nc2ccccc12 | > 4 mM (inactive)
82 | COc1ccc(C(=O)/C=C/c2ccccc2)cc1 | > 4 mM (inactive)
83 | CSc1nc(=O)[nH]c2c1CCC2 | > 4 mM (inactive)
84 | COc1cc2c(cc1O)CC1c3c(cc(O)c(OC)c3-2)CCN1C (stereo not drawn) | > 4 mM (inactive)
85 | Oc1ccccc1-c1cc(C(F)(F)F)[nH]n1 | > 4 mM (inactive)
86 | CN1CCN(c2ccc(C(=O)O)cc2)CC1 | > 4 mM (inactive)
87 | NC(N)=Nc1nc2ccccc2o1 | > 4 mM (inactive)
88 | COc1ccc(Cc2nccc3cc(OC)c(OC)cc23)cc1OC | > 4 mM (inactive)
89 | CN(C)C(=S)Nc1ccc([N+](=O)[O-])cc1 | > 4 mM (inactive)
90 | c1ccc(-c2nc3ccccc3nc2-c2ccccn2)nc1 | > 4 mM (inactive)
91 | Cc1ccc(F)cc1NC(=O)c1ccc2c(c1)OCO2 | > 4 mM (inactive)
92 | c1n[nH]cc1-c1cn[nH]c1 | > 4 mM (inactive)
93 | Cc1ncc(C[n+]2csc3ccccc32)c(N)n1 | > 4 mM (inactive)
94 | O=c1[nH]oc2ccccc12 | > 4 mM (inactive)
95 | c1ccc2c(c1)nc(-c1cscn1)n2Cc1ccc(-c2nn[nH]n2)cc1 | inactive
96 | O=C1OC(N2CCOCC2)c2ccccc21 (stereo not drawn) | > 4 mM (inactive)
97 | O=C(NCc1cccc(Cl)c1)c1cnccn1 | > 4 mM (inactive)
98 | O=S(=O)(NCc1ccco1)c1cccc2cccnc12 | > 4 mM (inactive)
99 | CCOC(=O)c1c[nH]c2c(F)cccc2c1=O | > 4 mM (inactive)
100 | CCOC(=O)C1CCNCC1 | > 4 mM (inactive)

Row | Compound | Kd
101 | Nc1ccc2c(c1)C(=O)OC2 | > 4 mM (inactive)
102 | Cc1cc(C)n2c(SCc3cccs3)nnc2n1 | > 4 mM (inactive)
103 | C[C@@H](N)[C@@H](O)c1ccccc1 | > 4 mM (inactive)
104 | O=C1NC(=S)S/C1=C/c1ccncc1 | > 4 mM (inactive)
105 | O=S(=O)(Nc1ccc(F)cc1)N1CCOCC1 | > 4 mM (inactive)
106 | O=c1n(-c2ccccc2)c(=O)n2n1CCCC2 | > 4 mM (inactive)
107 | O=C(NCc1ccco1)c1cccc(F)c1 | > 4 mM (inactive)
108 | CCOC(=O)c1c(C)n([O-])c2ccccc2[n+]1=O | > 4 mM (inactive)
109 | O=C(Oc1ccc(-c2nnco2)cc1)N1CCOCC1 | > 4 mM (inactive)
110 | CC(=O)c1c(C)nc(-c2ccc(F)cc2)n1O | > 4 mM (inactive)
111 | Oc1ccccc1C(=S)N1CCCCCC1 | > 4 mM (inactive)
112 | CN1CCN(C(=O)/C=C\C(=O)O)CC1 | > 4 mM (inactive)
113 | COC(=O)C1COCCN1C(=O)CS(=O)(=O)c1ccc(C(C)C)cc1 (stereo not drawn) | inactive
114 | CC(=O)c1cccc(NC(=O)Nc2c(C)nn(C)c2C)c1 | > 4 mM (inactive)
115 | NC(=O)CSc1nnc(-c2cccnc2)o1 | > 4 mM (inactive)
116 | Cc1nc2sc3c(c2c(=N)n1N)CC(C)(C)OC3 | > 4 mM (inactive)
117 | O=c1cc(-c2ccccc2)oc2cc(O)c(O)c(O)c12 | > 4 mM (inactive)
118 | CC(=O)Nc1ccc(NC(=O)C2CC2)cc1 | > 4 mM (inactive)
119 | C=CCSc1[nH]c(=O)cc(C)c1C(N)=O | > 4 mM (inactive)
120 | CC(=O)c1c(O)cc(O)cc1O | > 4 mM (inactive)
121 | O=[n+]1c(CO)c(CO)n([O-])c2ccccc21 | > 4 mM (inactive)
122 | OCc1ccc(N2CCOCC2)nc1 | > 4 mM (inactive)
123 | CC1(C)Cc2cccc(CO)c2O1 | > 4 mM (inactive)
